Results on 15 compounds are retold here after patent US10757937B2, “Sulfonamides that activate ABA receptors” (The Regents of the University of California, priority 2014, dated 2020).

The target in experiment [1] is T1, PYL1 (Arabidopsis thaliana, UniProt Q8VZS8).
T1 construct: 6X-His; made in house; host or cells: E. coli BL21[DE3]pLysS
T1 sequence (Q8VZS8 1-221): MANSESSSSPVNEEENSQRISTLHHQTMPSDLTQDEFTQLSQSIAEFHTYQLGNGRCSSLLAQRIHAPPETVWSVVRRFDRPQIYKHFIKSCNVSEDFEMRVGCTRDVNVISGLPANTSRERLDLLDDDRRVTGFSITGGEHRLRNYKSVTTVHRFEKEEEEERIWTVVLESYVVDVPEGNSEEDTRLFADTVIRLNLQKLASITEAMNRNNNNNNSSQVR
T1 sequence (Q9CAJ0 23-511 partner): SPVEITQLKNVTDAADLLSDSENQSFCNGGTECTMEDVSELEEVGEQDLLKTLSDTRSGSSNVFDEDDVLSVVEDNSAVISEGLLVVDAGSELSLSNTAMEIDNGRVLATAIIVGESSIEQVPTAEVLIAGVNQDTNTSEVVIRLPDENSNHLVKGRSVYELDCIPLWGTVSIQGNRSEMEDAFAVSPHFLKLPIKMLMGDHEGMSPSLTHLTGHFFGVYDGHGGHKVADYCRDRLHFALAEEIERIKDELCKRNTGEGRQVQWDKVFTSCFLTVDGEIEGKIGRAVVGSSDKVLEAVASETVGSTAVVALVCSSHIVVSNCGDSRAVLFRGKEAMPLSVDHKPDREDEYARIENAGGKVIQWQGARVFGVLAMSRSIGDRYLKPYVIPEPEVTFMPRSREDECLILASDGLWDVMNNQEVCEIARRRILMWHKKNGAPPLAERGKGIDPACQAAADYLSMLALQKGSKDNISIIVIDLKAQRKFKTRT
The experiment is described as follows: receptor-mediated PP2C (HAB1) inhibition in vitro assay. In kind it is biochemical. The settings on record: for remaining activity at 50 µM: 50 uM of the test compound. In a few lines:
(§1)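 His-tagged receptors (MBP fusion for PYL11) at 2:1 ratio to 50 nM GST-HAB1 in 100 mM Tris-OAc pH 7.9, 100 mM NaCl, 1 mM MnCl2; 4-methylumbelliferyl-phosphate fluorogenic substrate. Compounds at 50 uM (ABA 10 uM); IC50 from dose curves for selected compounds.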

Experiment [2] deals with T2, PYR1 (Arabidopsis thaliana, UniProt O49686).
T2 construct: 6X-His; made in house; host or cells: E. coli BL21[DE3]pLysS
T2 sequence (O49686 1-191): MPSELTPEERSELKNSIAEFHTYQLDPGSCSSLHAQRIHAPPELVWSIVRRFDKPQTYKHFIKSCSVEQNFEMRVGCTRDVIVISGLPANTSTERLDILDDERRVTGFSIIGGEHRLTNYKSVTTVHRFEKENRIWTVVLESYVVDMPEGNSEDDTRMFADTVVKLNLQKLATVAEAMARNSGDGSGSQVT
T2 sequence (Q9CAJ0 23-511 partner): T1 sequence (Q9CAJ0 23-511 partner)
The experiment is described as above. In kind it is biochemical. The settings on record: for remaining activity at 50 µM: 50 uM of the test compound. In a few lines:
as §1

Setting [3] is: Table XII-B, calculated from dose curves, read-out: PP2C Activity (IC50 in uM) PYL1.
Where [4] appears, read: Table XII-B, calculated from dose curves, read-out: PP2C Activity (IC50 in uM) PYR1.
Where [5] appears, read: Table VII, read-out: PP2C Dose Curves PYL1 (IC50).
Setting [6] is: Table VII, read-out: PP2C Dose Curves PYR1 (IC50).

Read-outs that look alike come from different tables or passages of the source.

Take `N#Cc1ccc(CS(=O)(=O)NC(=O)C(c2ccccc2)c2ccccc2)cc1` [Compound 71, N-[(4-Cyanophenyl)methanesulfonyl]-2,2-diphenylacetamide]: the remaining activity at 50 µM came to 93.8% in experiment [1] and 97.9% in experiment [2]. Besides, the half-maximal inhibitory concentration (IC50) in experiment [1] (setting [3]) and in experiment [2] (setting [4]) was > 50 µM throughout.
Take `CCC(CC)(C(=O)NS(=O)(=O)Cc1ccc([N+](=O)[O-])cc1)c1ccccc1` [Compound 19]: the IC50 in experiment [1] (setting [5]) and in experiment [2] (setting [6]) was > 50 µM in each case.
`N#Cc1ccc(CS(=O)(=O)NC(=O)C2(c3cccs3)CCCCC2)cc1` [Compound 75, N-[(4-Cyanophenyl)methanesulfonyl]-1-(thiophen-2-yl)cyclohexane-1-carboxamide]: the remaining activity at 50 µM in experiment [1] was determined as 95.5%; in experiment [2], 96.1%. For the same compound, the concentration for half-maximal inhibition (IC50) in experiment [1] (setting [3]) and in experiment [2] (setting [4]) was > 50 µM throughout.
Consider `CC(C)COC(=O)NS(=O)(=O)Cc1ccc(C#N)cc1` [Compound 65, 2-Methylpropyl N-[(4-cyanophenyl)methanesulfonyl]carbamate], for which the remaining activity at 50 µM in experiment [1] was 91.7%; in experiment [2] it was 96.2%. For the same compound, the IC50 in experiment [1] (setting [3]) and in experiment [2] (setting [4]) was > 50 µM each time.
With `N#Cc1ccc(CS(=O)(=O)NC(=O)C2(c3ccsc3)CCCCC2)cc1Br` [Compound 106, N-[(4-Cyano-3-bromophenyl)methanesulfonyl]-1-(thiophen-3-yl)cyclohexane-1-carboxamide], the remaining activity at 50 µM in experiment [1] worked out at 94.3%; in experiment [2] it was 98.9%. Moreover, the half-maximal inhibitory concentration (IC50) in experiment [1] (setting [3]) and in experiment [2] (setting [4]) was > 50 µM throughout.
On to `N#Cc1ccc(CS(=O)(=O)NC(=O)C2(c3ccc(F)cc3)CCCC2)cc1` [Compound 24], for which the IC50 in experiment [1] (setting [5]) and in experiment [2] (setting [6]) was > 50 µM in each case.
With `CC1=CC(=O)CC(C)(C)[C@@]1(O)/C=C/C(C)=C\C(=O)O` [ABA, Abscisic acid, reference compound], in experiment [1] (ABA (10 μM)), the “PP2C Activity PYL1” value is listed as 5.9. Also, the “PP2C Activity PYR1” value in experiment [2] (ABA (10 μM)) is listed as 6.0.
With `CC1CCC(C(=O)NS(=O)(=O)Cc2ccc(C#N)cc2)(c2ccc(F)cc2)CC1` (stereo not drawn) [Compound 67, N-[(4-Cyanophenyl)methanesulfonyl]-1-(4-fluorophenyl)-4-methylcyclohexane-1-carboxamide], the remaining activity at 50 µM in experiment [1] amounted to 98.3%; in experiment [2], 99.6%. For the same compound, the IC50 in experiment [1] (setting [3]) and in experiment [2] (setting [4]) was > 50 µM throughout.
For `O=C(NS(=O)(=O)Cc1ccc(F)cc1)C1(c2ccccc2)CCCCC1` [Compound 64], the remaining activity at 50 µM was determined as 102% in experiment [1] and 98.4% in experiment [2]. For the same compound, the IC50 in experiment [1] (setting [3]) and in experiment [2] (setting [4]) was > 50 µM in each case.
Take `N#Cc1ccc(CS(=O)(=O)NC(=O)C(c2ccc(F)cc2)c2ccc(F)cc2)cc1` [Compound 72, N-[(4-Cyanophenyl)methanesulfonyl]-2,2-bis(4-fluorophenyl)acetamide]: the remaining activity at 50 µM in experiment [1] is 94.2%; in experiment [2], 93.9%. Besides, the concentration for half-maximal inhibition (IC50) in experiment [1] (setting [3]) and in experiment [2] (setting [4]) was > 50 µM throughout.
With `N#Cc1ccc(CS(=O)(=O)NC(=O)C(C2CCCCC2)C2CCCCC2)cc1` [Compound 73, N-[(4-Cyanophenyl)methanesulfonyl]-2,2-cyclohexylacetamide], the remaining activity at 50 µM was determined as 95.5% in experiment [1] and 91.6% in experiment [2]. For the same compound, the 50% inhibitory concentration (IC50) in experiment [1] (setting [3]) and in experiment [2] (setting [4]) was > 50 µM each time.
On to `N#Cc1ccc(CS(=O)(=O)NC(=O)C2(c3ccsc3)CCCCC2)cc1` [Compound 78, N-[(4-Cyanophenyl)methanesulfonyl]-1-(thiophen-3-yl)cyclohexane-1-carboxamide], for which the remaining activity at 50 µM in experiment [1] came to 95.6%; in experiment [2], 90.9%. Moreover, the IC50 in experiment [1] (setting [3]) and in experiment [2] (setting [4]) was > 50 µM each time.
Consider `O=C(NS(=O)(=O)Cc1ccc([N+](=O)[O-])cc1)C1(c2ccccc2)CCCCC1` [Compound 63], for which the remaining activity at 50 µM in experiment [1] and in experiment [2] was 101% each time. Further, the half-inhibitory concentration (IC50) in experiment [1] (setting [3]) and in experiment [2] (setting [4]) was > 50 µM throughout.
On to `N#Cc1ccc(CS(=O)(=O)NC(=O)C2(c3ccccc3)CCCCC2)cc1` [Compound 69, N-[(4-Cyanophenyl)methanesulfonyl]-1-phenylcyclohexane-1-carboxamide], for which the remaining activity at 50 µM in experiment [1] is 98.4%; in experiment [2], 96%. Moreover, the IC50 in experiment [1] (setting [3]) and in experiment [2] (setting [4]) was > 50 µM each time.
With `CC1(C)CCC(C(=O)NS(=O)(=O)Cc2ccc(C#N)cc2)(c2ccc(F)cc2)CC1` [Compound 68, N-[(4-Cyanophenyl)methanesulfonyl]-1-(4-fluorophenyl)-4,4-dimethylcyclohexane-1-carboxamide], the remaining activity at 50 µM in experiment [1] came out at 96%; in experiment [2] it was 94.4%. For the same compound, the IC50 in experiment [1] (setting [3]) and in experiment [2] (setting [4]) was > 50 µM in each case.
